Experimental data reported in patent US6770673B1, “Therapeutic uses of arglabin in combination with other chemotherapy agents” (priority 1997, dated 2004).
Marks after values point to notes of the source that are not given here.

Assays:
[1] = test system: X-653 cells; assay: Viability of transformed cells, trypan blue exclusion; assay type: cell-based, mouse; details: 12 μg/ml, 18 hours
Method: Mouse mastocytoma (P-815), myeloma (Z-P3x63Ag8.653 and Pai) and human erthyroleukemia (K-562) cell lines were used. Primary cultures of normal mouse hepatocytes were isolated from mouse liver using collagenase. Mouse splenocytes were isolated using a glass homogenizer. Marrow cells were obtained by washing the bone marrow. See, for example, Shears, S. B. and Kirk, C. J. (1984), Biochem. J. 219:375-382.
Cells were cultured in RPMI-1640 medium supplemented with 10% fetal calf serum, 100 mM L-glutamine and 50 μg/ml gentamycin at 37° C. under 5% CO2. Cells were seeded into 24-well plates at a density of 50,000 cells/well and grown until near confluency, approximately 2 days, then transferred to 96-well plates at the same density. […] Viability of the cells was determined by trypan blue exclusion. […] Approximately 25% of K-562 and X-653 cells survived at a concentration of 12 μg/ml, and the same proportion of P-815 cells survived at a concentration of about 25 μg/ml.

[2] = test system: farnesylation of proteins; assay: Protein prenylation in myeloma Pai cells, naphthol cleavage and HPLC; assay type: cell-based, mouse; details: 60 μM, FIG. 8B
Method: (§1) The cells were collected by centrifugation at 600×g for 10 minutes and then washed twice in PBS. Control cells were grown in the absence of drug. The cells were solubilized in lysis buffer (50 mM Tris, pH 7.4, 25 mM EDTA, 0.05% Tween, 0.01 M NaCl) for 30 minutes on ice. Lysates were made by homogenization for 5 minutes at 4° C. and precipitated by centrifugation at 12,000×g for 10 minutes. The supernatant was collected. Proteins were precipitated with trichloroacetic acid and then successively washed with ethanol and ethyl ether. A selective naphthol cleavage of the bond between isoprenoides and proteins was performed as described by Epstein, W. W et al., (1991) Proc. Natl. Acad. Sci. USA 88:9668-9670. In general, 5 mg of a potassium naphthoxide and naphthol 4:1 mixture was added to approximately 10 mg of precipitated protein. After addition of 50 μl of dimethylformamide, the tubes were gassed with argon, capped and heated to 100° C. for eight to 15 hours. Reaction products were extracted with hexane and analyzed by HPLC (Waters System) using a 0.4×15 cm reverse-phase Nova-Pac C18 column. The column was eluted with 20% water in acetonitrile at a flow of 1.0 ml/minute. Napthol cleavage products were detected at 360 nm (FIG. 8) with a full-scale deflection of 0.01 A unit. […]

[3] = test system: geranylgeranylation; assay: as above; assay type: cell-based, mouse; details: 60 μM, FIG. 8B
Method: as §1

[4] = LD50, intraperitoneal injection; assay type: in vivo; details: 2% solution in DMSO
Source text: Overall, the compounds in this family have low toxicity and are tolerated at dosages exceeding the therapeutic dosage.

[5] = test system: Sarcoma-45 resistant to sarcolysin; assay: Inhibition of growth of resistant tumour strains; assay type: in vivo, rats; details: dose 50 mg/kg
[6] = test system: Sarcoma-45 resistant to prospidine; assay: Inhibition of growth of resistant tumour strains; assay type: in vivo, rats; details: dose 50 mg/kg
[7] = test system: sarcoma 45; assay: Disturbance of DNA synthesis in tumors (inhibition index); assay type: in vivo, rats; details: drug resistant sarcoma 45, alone
[8] = test system: drug resistant metastasis of Pliss' lymphosarcoma; assay: Model of drug resistant metastasis of Pliss' lymphosarcoma; assay type: in vivo, rats; details: alone
[9] = test system: immune system; assay: Immunity of rats with initial and prospidin resistant tumors with metastases; assay type: in vivo; details: sarcolysin, cisplatin
[10] = test system: immune system; assay: Immune system modulation in mice immunodepressed with cyclophosphamide; assay type: in vivo; details: 10 mg/kg for 10 days
Method: Mice were immunodepressed by administration of 200 mg/kg of cyclophosphamide. […] The Hemagglutination test and delayed-type hypersensitivity reaction were determined before and after administration of drug.
The increased number of T-lymphocytes was accompanied by an elevation in the T-helper subpopulation as well as the T-suppressor subpopulation, although to a lesser extent.

[11] = test system: immune system; assay: Immunological indices in intact August rats; assay type: in vivo; details: about 50 mg/kg IP daily for 10 days
Source text: Additional immunological data were obtained from an “August” line of rats, weighing 140-160 g, with and without Pliss lymphosarcoma. […] Results are summarized in Table V. Overall, lyophilized-dimethylaminoarglabin hydrochloride stimulated delayed type hypersensitivity, but reduced all other studied indices in intact rats. In rats with Pliss Lymphosarcoma, the immune system was stimulated, as all studied indices increased.

[12] = test system: immune system; assay: Immunologic status of patients of the first clinical trial, rozette-formation and phagocytosis; assay type: in vivo, human
Method: Immunologic status of the patients was evaluated using standard methods of rozette-formation and phagocytosis. These indices were studied prior to treatment, during treatment and after treatment. Blood samples were taken from a finger. […] A general change in the ratio of T-helper lymphocytes to T-suppressor lymphocytes was due to an increase of T-suppressor lymphocytes. […] Total number of leukocytes increased up to 9.4×10^9/L and the total number of lymphocytes increased as well. The levels of all types of immunoglobulins increased.
By day 20 of treatment, all indices returned to normal. In some patients, indices returned to normal by day 14. In patients that were analyzed 30 days after treatment, a significant increase in the number of T-lymphocytes and adhesiveness of neutrophils was observed.

[13] = test system: immune system; assay: Indices of patients' immunity, rozette forming and phagocytosis methods (Table X); assay type: in vivo, human
Method: The indices of immune system were determined using rozette forming and phagocytosis methods. […] Eleven indices of cellular and humoral immunity were measured from each patient in order to evaluate immune status. The following indices were determined on 0.05 ml of peripheral blood: absolute and relative amount of T- and B-lymphocytes, amount of non-differentiated “zero” cells, adhesion and phagocyte activity of neutrophils, hemogram, level of serum immunoglobulins. Indices were determined before treatment, on days 2, 5 and 14 of treatment, and after treatment.
Mean values of immunological indices were evaluated with regression analysis. Functional conditions of the immune system were estimated using integral indices such as a mean intensity (correlation) expressed in relative units.

[14] = test system: end-stage (III-IV) cancer; assay: First clinical trial, 51 patients
Method: The patient population was 67.9% male and 32.1% female. […] Intrapleural administration was used for patients with pleurisy. Patients were given a very small dose and monitored for any signs of allergic reaction before proceeding. […] After 30-35 days, the dose was increased to 480 mg per day. […] It was estimated that the daily dose should be about 240-280 mg for typical cases. […] Additional courses of treatment were administered to some patients. Patient condition before treatment was rated on a scale of 1 to 3, where 1 was bedridden, 2 was a significant restriction on activity and 3 retained full activity. Therapeutic result was measured on a scale from 0 to 3, where 0 was no improvement, 1 was insignificant or improvement for less than a month, 2 was considerable improvement (25-50% reduction in tumor size) and 3 was sharp improvement (50-100% reduction in tumor size).

CC1=CCC23OC2(C)CCC2C(CN(C)C)C(=O)OC2C13.Cl (centres unmarked) [Dimethylaminoarglabin hydrochloride]
cells survived [1]: Approximately 25% | peak corresponding to the farnesylcysteine derivative [2]: does not appear on the chromatogram | geranylgeranyl peak [3]: appeared as in the control | LD50 ([4]; mice): 190 to 220 mg/kg | LD50 ([4]; rats): 280 to 310 mg/kg | Inhibition of Tumour Strains Growth, % - Resistant Forms - Sarcoma-45 to sarcolysin [5]: 90.1*** % | Inhibition of Tumour Strains Growth, % - Resistant Forms - Sarcoma-45 to prospidine [6]: 87.4*** % | DNA inhibition index [7]: 99% | duration of life in comparison with the control group [8]: 128% | effect on immunodepression caused by cytostatics [9]: softened the immunodepressive effect of cytostatics | leukopenia and lymphopenia [10]: reduced the leukopenia and lymphopenia | Hemagglutination (RHG), Intact Rats After Treatment ([11]; Decreased): 43-53% | Nitroblue tetrazolium (NBT), Intact Rats After Treatment ([11]; Decreased): 67-91% | Spontaneous-erythrocyte rosette forming (E-ROK), Intact Rats After Treatment ([11]; Decreased): 64-84% | Delayed type hypersensitivity, Intact Rats After Treatment ([11]; Increased): 153-207% | neutrophil adhesiveness ([12]; days 3-5 of treatment, decreased from 42%): 28.5% | undifferentiated lymphocytes ([12]; days 3-5 of treatment, increased from 21.5%): 42.2% | number of T-helper lymphocytes ([12]; days 3-5 of treatment, reduced from 50%): 37.3% | number of T-lymphocytes ([12]; days 3-5 of treatment, reduced from 57%): 40.1% | total number of leukocytes increased up to ([12]; during treatment): up to 9.4 ×10^9/L | level of non-differentiated "zero" cells ([13]; 2nd-5th day of treatment): increased | percentage of T-lymphocytes and T-helper lymphocytes ([13]; 2nd-5th day of treatment): reduced considerably | immunoglobulins A, M and G ([13]; after the treatment): increased amount | complaints at high dose ([14]; 480 mg per day): nausea and vomiting | patients with a considerable improvement ([14]; liver cancer): 55.6% | patients with a considerable improvement ([14]; lung cancer): about 64% | patients with a considerable improvement ([14]; ovarian cancer): 66% | patients with a considerable improvement ([14]; overall): approximately 30% | Note(s) - decrease in tumor ([14]; patient 47, rectal cancer III stage, suppositories): 50% decrease | hematopoiesis ([14]; patients): did not suppress hematopoiesis | toxicity ([14]; patients): little toxicity | taste reported immediately after administration ([14]; quickly dissipated): bitter taste
